Laboratory results: patent publication US20160194299A1 (priority 2013, published 2016)
In brackets after ≈: the same amount, converted by molar mass. Read-outs that look alike come from different tables or passages of the source.

Tests used:
[1] = test system: Mtb; assay: microbe, parasite or virus in culture; format: cell-based, Mycobacterium tuberculosis; settings: Mycobacterium tuberculosis
[2] = in vitro; settings: African green monkey
[3] = read-out: MIC, microplate alamar blue assay (MABA; I)

SMILES | MIC [1, 3] [µg/mL] | CC50 [2] [µg/mL] | MIC ([1]; read-out: MIC (I)) [µg/mL]
COc1ccc2c(c1)C=C(C(=O)Nc1sccc1C(=O)NC(=O)OC(C)C)CO2 [Compound 404] | < 1 | < 25 | –
O=C(Nc1sccc1C(=O)NCC1CCCO1)c1nc2cnccc2s1 (stereo not drawn) [Compound 455] | > 3 | – | –
O=C(Nc1sccc1C(=O)NC(=O)N1CCCCC1)c1nc2cnccc2s1 [Compound 428] | 1 to 3 (≈ 2.41 to 7.22 µM) | > 50 | –
CCOC(=O)NC(=O)c1ccsc1NC(=O)c1nc2ccc(OC)cc2s1 [Compound 412] | < 1 | > 50 | –
O=C(NC(=O)c1ccsc1NC(=O)c1nc2ncccc2s1)OCC(F)(F)F [Compound 434] | > 3 | 25 to 50 (≈ 58.1 to 116 µM) | –
CCCCOC(=O)NC(=O)c1ccsc1NC(=O)c1nc2ccccc2s1 [Compound 19] | – | – | < 1
O=C(Nc1sccc1C(=O)Nc1cnccn1)c1nc2cnccc2s1 [Compound 440] | > 3 | 25 to 50 (≈ 65.4 to 131 µM) | –
CNC(=O)CNC(=O)c1ccsc1NC(=O)c1nc2ccccc2s1 [Compound 235] | – | > 50 | –
O=C(Nc1sccc1C(=O)Nc1ncccn1)c1nc2cnccc2s1 [Compound 441] | < 1 | 25 to 50 (≈ 65.4 to 131 µM) | –
COC(=O)c1cccnc1NC(=O)c1nc2ccccc2s1 [Compound 444] | 1 to 3 (≈ 3.19 to 9.57 µM) | – | –
CCOC(=O)NC(=O)c1ncsc1NC(=O)c1nc2ccccc2s1 [Compound 106] | – | – | > 3
CCOC(=O)NC(=O)c1ccsc1NC(=O)c1ccc2ncsc2c1 [Compound 42] | – | < 25 | < 1
CCOC(=O)NC(=O)c1ccsc1NC(=O)c1cc(NC(C)=O)ccn1 [Compound 111] | – | – | > 3
CC(C)OC(=O)NC(=O)c1ccsc1NC(=O)c1ccc2ncsc2c1 [Compound 410] | < 1 | < 25 | –
CCOC(=O)NC(=O)c1cc(F)sc1NC(=O)c1nc2ccccc2s1 [Compound 16] | – | 25 to 50 (≈ 63.5 to 127 µM) | < 1
O=C(NC(=O)c1ccsc1NC(=O)c1nc2ccccc2s1)OCCN1CCOCC1 [Compound 38] | – | > 50 | < 1
CCOC(=O)NC(=O)c1ccsc1NC(=O)c1cncc(NC(C)=O)c1 [Compound 22] | – | – | < 1
CCOC(=O)NC(=O)c1ccccc1NC(=O)c1nc2ccccc2s1 [Compound 214] | – | > 50 | –
CC(C)OC(=O)NC(=O)c1ccsc1NC(=O)c1ccc2nsnc2c1 [Compound 449] | < 1 | – | –
CN(C)C(=O)NC(=O)c1ccsc1NC(=O)c1nc2ccccc2s1 [Compound 45] | – | > 50 | > 3
CCOC(=O)NC(=O)c1ccsc1NC(=O)c1ccc2c(c1)OCO2 [Compound 27] | – | < 25 | < 1

SMILES | MIC [1, 3] [µg/mL] | CC50 [2] [µg/mL] | MIC ([1]; read-out: MIC (I)) [µg/mL]
CCOC(=O)NC(=O)c1ccsc1NC(=O)c1csc2c1CCCC2 [Compound 231] | – | < 25 | –
CCOC(=O)NC(=O)c1ccsc1NC(=O)c1nc2nc(C)c(Cl)cc2s1 [Compound 409] | < 1 | 25 to 50 (≈ 58.8 to 118 µM) | –
CCOC(=O)NC(=O)c1ccsc1NC(=O)c1ccc2sc(C3CC3)nc2c1 [Compound 414] | < 1 | > 50 | –
CCOC(=O)NC(=O)c1ccsc1NC(=O)c1nc(-c2ccccc2)cs1 [Compound 240] | – | > 50 | –
O=C(Nc1sccc1C(=O)OC1CCCC1)c1nc2ccccc2s1 [Compound 429] | > 3 | > 50 | –
CN1CCN(C(=O)c2ccsc2NC(=O)c2nc3ccccc3s2)CC1 [Compound 225] | – | 25 to 50 (≈ 64.7 to 129 µM) | –
CCNC(=O)NC(=O)c1ccsc1NC(=O)c1nc2ccccc2s1 [Compound 109] | – | – | > 3
O=C(Nc1sccc1C(=O)N1CCNCC1)c1nc2ccccc2s1 [Compound 228] | – | < 25 | –
CCOC(=O)NC(=O)c1ccsc1NC(=O)c1ccc(-c2csc(C)n2)cc1 [Compound 241] | – | > 50 | –
CCOC(=O)NC(=O)c1ccsc1NCc1nc2ccccc2s1 [Compound 209] | – | > 50 | –
CC(C)OC(=O)NC(=O)c1ccsc1NC(=O)c1ccn2cnnc2c1 [Compound 452] | < 1 | – | –
CCOC(=O)NC(=O)c1ccsc1NC(=O)c1nc2ccncc2s1 [Compound 458] | > 3 | – | –
CCOC(=O)NC(=O)c1ccsc1NC(=O)c1nc2ncc(C)cc2s1 [Compound 457] | < 1 | – | –
O=C(Nc1sccc1C(=O)Nc1ccccn1)c1nc2cnccc2s1 [Compound 454] | > 3 | – | –
CCOS(=O)(=O)NC(=O)c1ccsc1NC(=O)c1nc2ccccc2s1 [Compound 108] | – | – | > 3
COC(=O)NC(=O)c1ccsc1NC(=O)c1nc2ccccc2s1 [Compound 21] | – | – | < 1
CCOC(=O)NC(=O)c1ccsc1NC(=O)c1ccc2nsnc2c1 [Compound 448] | < 1 | – | –
CCOC(=O)NC(=O)c1ccsc1NC(=O)c1nc2c(s1)N(S(C)(=O)=O)CCC2 [Compound 233] | – | > 50 | –
CCOC(=O)NC(=O)c1cc(C)sc1NC(=O)c1nc2ccccc2s1 [Compound 14] | – | – | < 1
COC(=O)CCCNC(=O)c1ccsc1NC(=O)c1nc2ccccc2s1 [Compound 236] | – | > 50 | –
Nc1nnc(-c2ccsc2NC(=O)c2nc3ccccc3s2)o1 [Compound 210] | – | > 50 | –

SMILES | MIC [1, 3] [µg/mL] | CC50 [2] [µg/mL] | MIC ([1]; read-out: MIC (I)) [µg/mL]
CCOC(=O)NC(=O)c1cc(C)sc1NC(=O)c1nc2cnccc2s1 [Compound 443] | < 1 | – | –
CCOC(=O)NC(=O)c1ccsc1NC(=O)c1csc2c1CCN(S(C)(=O)=O)C2 [Compound 230] | – | > 50 | –
CC(C)(C)OC(=O)NC(=O)c1ccsc1NC(=O)c1nc2ccccc2s1 [Compound 23] | – | – | < 1
O=C(Nc1sccc1C(=O)N1CCOC1=O)c1nc2ccccc2s1 [Compound 107] | – | – | > 3
CCOC(=O)NC(=O)c1cc(C)sc1NC(=O)c1nc2ncccc2s1 [Compound 446] | < 1 | – | –
CCOC(=O)NC(=O)c1ccsc1NC(=O)c1cc2c(s1)CCCC2 [Compound 239] | – | > 50 | –
CCOC(=O)NC(=O)c1cc(Cl)sc1NC(=O)c1nc2cnccc2s1 [Compound 445] | < 1 | – | –
CCOC(=O)NC(=O)c1ccsc1NC(=O)c1cc2c(s1)CCN(S(C)(=O)=O)C2 [Compound 232] | – | > 50 | –
CCOC(=O)NC(=O)c1c(NC(=O)c2nc3ccccc3s2)sc(C#N)c1C [Compound 216] | – | > 50 | –
CCOC(=O)NC(=O)c1ccsc1NC(=O)c1nc2ccc(C)nc2s1 [Compound 224] | – | > 50 | –
O=C(Nc1sccc1C(=O)Nc1ncco1)c1nc2cnccc2s1 [Compound 456] | 1 to 3 (≈ 2.69 to 8.08 µM) | – | –
CCOC(=O)NC(=O)c1cc(Cl)sc1NC(=O)c1nc2ccccc2s1 [Compound 15] | – | – | < 1
O=C(Nc1sccc1C(=O)N1CCNC1=O)c1nc2ccccc2s1 [Compound 226] | – | > 50 | –
CCOC(=O)NC(=O)c1ccsc1NC(=O)c1ccnc2cc(Cl)ccc12 [Compound 450] | > 3 | – | –
COC(=O)CNC(=O)c1ccsc1NC(=O)c1nc2ccccc2s1 [Compound 234] | – | > 50 | –
CCOC(=O)NC(=O)c1ccsc1NC(=O)c1ccn2cnnc2c1 [Compound 451] | < 1 | – | –
Cc1nnc(NC(=O)c2ccsc2NC(=O)c2nc3ccccc3s2)s1 [Compound 110] | – | – | > 3
CCOC(=O)NC(=O)c1ccsc1NC(=O)Cc1nc2ccccc2s1 [Compound 238] | – | 25 to 50 (≈ 64.2 to 128 µM) | –
CC(C)(C)OC(=O)N1CCN(C(=O)c2ccsc2NC(=O)c2nc3ccccc3s2)CC1 [Compound 227] | – | > 50 | –
CC(C)OC(=O)NC(=O)c1ccsc1NC(=O)c1cccc2cc(Cl)ccc12 [Compound 447] | 1 to 3 (≈ 2.4 to 7.2 µM) | – | –
CCOC(=O)NC(=O)c1cnn(C)c1NC(=O)c1nc2ccccc2s1 [Compound 105] | – | – | > 3
